# Test results: US10966978B2, “Dose and regimen for HDM2-p53 interaction inhibitors” (Novartis AG, priority 2016, dated 2021)
# Like-named read-outs stand apart in the source and are kept apart here.
# Tested on: patients with advanced TP53 wild-type (WT) leukemias
# From the text: Patients with Ph+ ALL who show early markers of relapse in MRD surveillance can be considered for inclusion as long as other therapies such as TKIs are exhausted or cannot be given. • Tumor of the patient is TP53 wt characterized by, at a minimum, no mutations in exons 5, 6, 7 and 8, and the p53 status was obtained from a bone-marrow sample, collected no longer than 3 months before signing the main ICF. Safety and Tolerability Profile of Regimen 1B in Hematological Tumors
structure (smiles),measurement,setting,value
"COc1ncc(-c2nc3c(n2C(C)C)[C@H](c2ccc(Cl)cc2)N(c2cc(Cl)cn(C)c2=O)C3=O)c(OC)n1 [HDM201, (S)-5-(5-Chloro-1-methyl-2-oxo-1,2-dihydro-pyridin-3-yl)-6-(4-chloro-phenyl)-2-(2,4-dimethoxy-pyrimidin-5-yl)-1-isopropyl-5,6-dihydro-1H-pyrrolo[3,4-d]imidazol-4-one]",AE: Fatigue,"Regimen 1A N = 16, All Grades",4 (25.0) n (%)
same,AE: Febrile Neutropenia,"Regimen 1A N = 16, All Grades",4 (25.0) n (%)
same,AE: Gamma-Glutamyltransferase Increased,"Regimen 1A N = 16, All Grades",2 (12.5) n (%)
same,AE: General Physical Health Deterioration,"Regimen 1A N = 16, All Grades",2 (12.5) n (%)
same,AE: Gingival Bleeding,"Regimen 1A N = 16, All Grades",2 (12.5) n (%)
same,AE: Graft Versus Host Disease,"Regimen 1A N = 16, All Grades",1 (6.3) n (%)
same,AE: Haemoglobin Decreased,"Regimen 1A N = 16, All Grades",1 (6.3) n (%)
same,AE: Headache,"Regimen 1A N = 16, All Grades",1 (6.3) n (%)
same,AE: Hyperbilirubinaemia,"Regimen 1A N = 16, All Grades",1 (6.3) n (%)
same,AE: Hyperglycaemia,"Regimen 1A N = 16, All Grades",1 (6.3) n (%)
same,AE: Hyperkalaemia,"Regimen 1A N = 16, All Grades",0 n (%)
same,AE: Hyperphosphataemia,"Regimen 1A N = 16, All Grades",1 (6.3) n (%)
same,AE: Hyperuricaemia,"Regimen 1A N = 16, All Grades",2 (12.5) n (%)
same,AE: Hypoalbuminaemia,"Regimen 1A N = 16, All Grades",1 (6.3) n (%)
same,AE: Hypocalcaemia,"Regimen 1A N = 16, All Grades",2 (12.5) n (%)
same,AE: Hypokalaemia,"Regimen 1A N = 16, All Grades",0 n (%)
same,AE: Hypomagnesaemia,"Regimen 1A N = 16, All Grades",1 (6.3) n (%)
same,AE: Hyponatraemia,"Regimen 1A N = 16, All Grades",1 (6.3) n (%)
same,AE: Hypophosphataemia,"Regimen 1A N = 16, All Grades",2 (12.5) n (%)
same,AE: Hypotension,"Regimen 1A N = 16, All Grades",1 (6.3) n (%)
same,AE: Infection,"Regimen 1A N = 16, All Grades",1 (6.3) n (%)
same,AE: Infective Glossitis,"Regimen 1A N = 16, All Grades",0 n (%)
same,AE: Iron Overload,"Regimen 1A N = 16, All Grades",1 (6.3) n (%)
same,AE: Leukopenia,"Regimen 1A N = 16, All Grades",2 (12.5) n (%)
same,AE: Lip Oedema,"Regimen 1A N = 16, All Grades",1 (6.3) n (%)
same,AE: Lipase Increased,"Regimen 1A N = 16, All Grades",3 (18.8) n (%)
same,AE: Macular Oedema,"Regimen 1A N = 16, All Grades",0 n (%)
same,AE: Malaise,"Regimen 1A N = 16, All Grades",1 (6.3) n (%)
same,AE: Mouth Haemorrhage,"Regimen 1A N = 16, All Grades",2 (12.5) n (%)
same,AE: Nausea,"Regimen 1A N = 16, All Grades",10 (62.5) n (%)
same,AE: Neutropenia/Neutrophil Count Decreased,"Regimen 1A N = 16, All Grades",6 (37.5) n (%)
same,AE: Oedema,"Regimen 1A N = 16, All Grades",1 (6.3) n (%)
same,AE: Oral Disorder,"Regimen 1A N = 16, All Grades",1 (6.3) n (%)
same,AE: Pain In Extremity,"Regimen 1A N = 16, All Grades",1 (6.3) n (%)
same,AE: Pancytopenia,"Regimen 1A N = 16, All Grades",0 n (%)
same,AE: Pneumonia,"Regimen 1A N = 16, All Grades",1 (6.3) n (%)
same,AE: Pollakiuria,"Regimen 1A N = 16, All Grades",1 (6.3) n (%)
same,AE: Pyrexia,"Regimen 1A N = 16, All Grades",3 (18.8) n (%)
same,AE: Rash,"Regimen 1A N = 16, All Grades",1 (6.3) n (%)
same,AE: Rash Erythematous,"Regimen 1A N = 16, All Grades",1 (6.3) n (%)
same,AE: Rash Papular,"Regimen 1A N = 16, All Grades",1 (6.3) n (%)
same,AE: Rectal Haemorrhage,"Regimen 1A N = 16, All Grades",0 n (%)
same,AE: Renal Failure,"Regimen 1A N = 16, All Grades",0 n (%)
same,AE: Skin Exfoliation,"Regimen 1A N = 16, All Grades",1 (6.3) n (%)
same,AE: Stomatitis,"Regimen 1A N = 16, All Grades",1 (6.3) n (%)
same,AE: Subarachnoid Haemorrhage,"Regimen 1A N = 16, All Grades",1 (6.3) n (%)
same,AE: Thrombocytopenia/Platelet Count Decreased,"Regimen 1A N = 16, All Grades",8 (50.0) n (%)
same,AE: Total,"Regimen 1A N = 16, All Grades",15 (93.8) n (%)
same,AE: Tumour Lysis Syndrome,"Regimen 1A N = 16, All Grades",7 (43.8) n (%)
same,AE: Vomiting,"Regimen 1A N = 16, All Grades",5 (31.3) n (%)
same,AE: Weight Decreased,"Regimen 1A N = 16, All Grades",1 (6.3) n (%)
same,AE: White Blood Cell Count Decreased,"Regimen 1A N = 16, All Grades",1 (6.3) n (%)
same,AE: Abdominal Discomfort,"Regimen 1A N = 16, Grade 3/4",0 n (%)
same,AE: Abdominal Pain,"Regimen 1A N = 16, Grade 3/4",0 n (%)
same,AE: Abdominal Pain Upper,"Regimen 1A N = 16, Grade 3/4",0 n (%)
same,AE: Acute Kidney Injury,"Regimen 1A N = 16, Grade 3/4",0 n (%)
same,AE: Amylase Increased,"Regimen 1A N = 16, Grade 3/4",0 n (%)
same,AE: Anaemia,"Regimen 1A N = 16, Grade 3/4",4 (25.0) n (%)
same,AE: Arthralgia,"Regimen 1A N = 16, Grade 3/4",0 n (%)
same,AE: Asthenia,"Regimen 1A N = 16, Grade 3/4",0 n (%)
same,AE: Atrial Fibrillation,"Regimen 1A N = 16, Grade 3/4",0 n (%)
same,AE: Atypical Pneumonia,"Regimen 1A N = 16, Grade 3/4",0 n (%)
same,AE: Balanitis Candida,"Regimen 1A N = 16, Grade 3/4",0 n (%)
same,AE: Blood Alkaline Phosphatase Increased,"Regimen 1A N = 16, Grade 3/4",0 n (%)
same,AE: Blood Bilirubin Increased,"Regimen 1A N = 16, Grade 3/4",0 n (%)
same,AE: Blood Creatinine Increased,"Regimen 1A N = 16, Grade 3/4",0 n (%)
same,AE: Blood Phosphorus Increased,"Regimen 1A N = 16, Grade 3/4",0 n (%)
same,AE: Blood Uric Acid Increased,"Regimen 1A N = 16, Grade 3/4",1 (6.3) n (%)
same,AE: Bone Marrow Failure,"Regimen 1A N = 16, Grade 3/4",0 n (%)
same,AE: C-Reactive Protein Increased,"Regimen 1A N = 16, Grade 3/4",0 n (%)
same,AE: Cardiac Failure,"Regimen 1A N = 16, Grade 3/4",0 n (%)
same,AE: Cellulitis,"Regimen 1A N = 16, Grade 3/4",0 n (%)
same,AE: Chronic Graft Versus Host Disease,"Regimen 1A N = 16, Grade 3/4",1 (6.3) n (%)
same,AE: Conjunctival Haemorrhage,"Regimen 1A N = 16, Grade 3/4",0 n (%)
same,AE: Constipation,"Regimen 1A N = 16, Grade 3/4",0 n (%)
same,AE: Cough,"Regimen 1A N = 16, Grade 3/4",0 n (%)
same,AE: Cystitis Viral,"Regimen 1A N = 16, Grade 3/4",0 n (%)
same,AE: Cytomegalovirus Infection,"Regimen 1A N = 16, Grade 3/4",0 n (%)
same,AE: Decreased Appetite,"Regimen 1A N = 16, Grade 3/4",0 n (%)
same,AE: Diarrhoea,"Regimen 1A N = 16, Grade 3/4",0 n (%)
same,AE: Dyspepsia,"Regimen 1A N = 16, Grade 3/4",0 n (%)
same,AE: Dyspnoea,"Regimen 1A N = 16, Grade 3/4",1 (6.3) n (%)
same,AE: Epistaxis,"Regimen 1A N = 16, Grade 3/4",0 n (%)
same,AE: Fatigue,"Regimen 1A N = 16, Grade 3/4",0 n (%)
same,AE: Febrile Neutropenia,"Regimen 1A N = 16, Grade 3/4",4 (25.0) n (%)
same,AE: Gamma-Glutamyltransferase Increased,"Regimen 1A N = 16, Grade 3/4",1 (6.3) n (%)
same,AE: General Physical Health Deterioration,"Regimen 1A N = 16, Grade 3/4",0 n (%)
same,AE: Gingival Bleeding,"Regimen 1A N = 16, Grade 3/4",0 n (%)
same,AE: Graft Versus Host Disease,"Regimen 1A N = 16, Grade 3/4",0 n (%)
same,AE: Haemoglobin Decreased,"Regimen 1A N = 16, Grade 3/4",0 n (%)
same,AE: Headache,"Regimen 1A N = 16, Grade 3/4",0 n (%)
same,AE: Hyperbilirubinaemia,"Regimen 1A N = 16, Grade 3/4",0 n (%)
same,AE: Hyperglycaemia,"Regimen 1A N = 16, Grade 3/4",0 n (%)
same,AE: Hyperkalaemia,"Regimen 1A N = 16, Grade 3/4",0 n (%)
same,AE: Hyperphosphataemia,"Regimen 1A N = 16, Grade 3/4",0 n (%)
same,AE: Hyperuricaemia,"Regimen 1A N = 16, Grade 3/4",1 (6.3) n (%)
same,AE: Hypoalbuminaemia,"Regimen 1A N = 16, Grade 3/4",0 n (%)
same,AE: Hypocalcaemia,"Regimen 1A N = 16, Grade 3/4",0 n (%)
same,AE: Hypokalaemia,"Regimen 1A N = 16, Grade 3/4",0 n (%)
same,AE: Hypomagnesaemia,"Regimen 1A N = 16, Grade 3/4",0 n (%)
same,AE: Hyponatraemia,"Regimen 1A N = 16, Grade 3/4",0 n (%)
same,AE: Hypophosphataemia,"Regimen 1A N = 16, Grade 3/4",2 (12.5) n (%)
same,AE: Hypotension,"Regimen 1A N = 16, Grade 3/4",0 n (%)
same,AE: Infection,"Regimen 1A N = 16, Grade 3/4",1 (6.3) n (%)
same,AE: Infective Glossitis,"Regimen 1A N = 16, Grade 3/4",0 n (%)
